Two compounds from patent US20200062776A1, “HEDGEHOG ACYLTRANSFERASE INHIBITORS AND USES THEREOF” (Memorial Sloan-Kettering Cancer Center, priority 2016, published 2020) can be followed below.

Bounds are passed on as bounds.

One test deals with H1703 oncospheres. Put plainly: H1703 oncosphere growth, 10 days, EZQuant. The class given is cell-based, human. As to conditions: for cell count of H1703 oncospheres: compounds replenished every 2 days. As to the method:
Duplicate wells were treated with the indicated concentrations of compound for 10 days. Compounds were replenished in the media every 2 days. Cell number was quantified at Day 10 using EZQuant (Alstem).

For the next test, the target named is Hhat (Homo sapiens, UniProt Q5VTY9). Put plainly: Hhat-mediated Shh palmitoylation in COS-1 cells transfected with Shh and Hhat ([125I]-iodopalmitate labeling). Type of test: cell-based. Details: dose or concentration left out as unconfirmed. Conditions: 4 hr labeling at 37° C. As to the method: FIGS. 1A-1B. […] FIG. 1A. COS-1 cells were transfected with cDNA plasmids encoding Shh and Hhat (see, e.g., Buglino, J. A., and Resh, M. D. “Hhat is a palmitoyl acyltransferase with specificity for N-palmitoylation of sonic hedgehog” J. Biol. Chem. 2008, 283, 22076-22088; Petrova, E., Rios-Esteves, J., Ouerfelli, O., Glickman, J. F., and Resh, M. D. “Inhibitors of Hedgehog acyltransferase block Sonic Hedgehog signaling” Nat Chem Biol 2013, 9, 247-249). 48 hours after transfection, cells were starved for 1 hour in DMEM containing 2% dialyzed fetal calf serum and then labeled for 4 hr at 37° C. with […] [^125I]-iodopalmitate in the presence of […] of the indicated compound or DMSO. Cell lysates were immunoprecipitated with anti-Shh antibody, analyzed by SDS-PAGE and dried gels were subjected to Phosphorimaging. The amount of radiolabel incorporated into Shh was quantified and compared to that obtained for DMSO (normalized to 1.0). % Inhibition=1−(signal in drug treated sample/signal in DMSO sample)×100. FIG. 1B. Structure of RU-SKI 43 (see, e.g., Petrova, E., Rios-Esteves, J., Ouerfelli, O., Glickman, J. F., and Resh, M. D. “Inhibitors of Hedgehog acyltransferase block Sonic Hedgehog signaling” Nat Chem Biol 2013, 9, 247-249).
Hhat, sequence (Q5VTY9 whole entry): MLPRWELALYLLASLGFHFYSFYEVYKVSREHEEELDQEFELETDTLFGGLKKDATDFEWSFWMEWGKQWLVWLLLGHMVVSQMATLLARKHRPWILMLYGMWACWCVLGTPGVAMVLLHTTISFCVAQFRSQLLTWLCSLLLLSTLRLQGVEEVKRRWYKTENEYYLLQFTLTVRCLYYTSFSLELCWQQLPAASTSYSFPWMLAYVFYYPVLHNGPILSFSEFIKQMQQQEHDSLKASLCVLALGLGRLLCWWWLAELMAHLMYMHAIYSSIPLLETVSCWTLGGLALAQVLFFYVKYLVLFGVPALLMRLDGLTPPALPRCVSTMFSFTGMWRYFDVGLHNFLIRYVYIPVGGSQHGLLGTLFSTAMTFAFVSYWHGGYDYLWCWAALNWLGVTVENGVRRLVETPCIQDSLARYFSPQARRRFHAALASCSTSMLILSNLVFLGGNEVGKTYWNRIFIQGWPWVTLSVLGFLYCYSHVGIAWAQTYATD

Test [1] relates to AsPC1 human pancreatic cancer cells. The test can be described thus: AsPC1 cell growth, 24-well plates, 6 days, Crystal violet staining. Type of test: cell-based. As to conditions: ASPC1, 144 h, FIG. 2D inhibition curve. As for the experimental part:
FIGS. 2A-2D show inhibition of the growth of AsPC1 cells by TDI compounds. […] Compounds were added on Day 0, and were replenished in the media every 2 days. Each condition was represented by duplicate wells. Cell number was quantified by Crystal violet staining. FIG. 2A. Growth curve. FIG. 2B. Crystal violet staining of a typical set of 6 wells. FIG. 2C. Bar graph depicting % inhibition of cell proliferation at Day 6 for each compound, compared to DMSO treated cells. % Inhibition was calculated as in FIG. 1A.

For another test, the target named is T1, purified Hhat (Homo sapiens, UniProt Q5VTY9).
T1 construct: HA; made in house; host or cells: 293FT cells
T1 sequence (Q5VTY9 whole entry): as above
Put plainly: Pulldown assay: purified Hhat + 125I-palmitoyl CoA + Shh peptide. The class given is biochemical. As to conditions: 1 hr at 20° C.; read-out: IC50, Shh palmitoylation by purified Hhat. As for the experimental part: FIG. 3. TDI-003410 inhibits Shh palmitoylation by purified Hhat. Pulldown assay: Purified Hhat+^125I-palmitoyl CoA+Shh peptide. […] Hhat was purified to homogeneity from 293FT cells transfected with a cDNA encoding HA-tagged Hhat, as described by Buglino and Resh (see, e.g., Buglino, J. A., and Resh, M. D. “Hhat is a palmitoyl acyltransferase with specificity for N-palmitoylation of sonic hedgehog” J. Biol. Chem. 2008, 283, 22076-22088). Purified Hhat was incubated with ^125I-Iodopalmitoyl CoA and a C-terminally biotinylated Shh peptide (representing the first 10 amino acids of mature Shh) for 1 hr at 20° C. in the presence of the indicated concentrations of TDI-3410. The reaction was quenched, and biotinylated peptides were captured on streptavidin-agarose beads by repeated centrifugation and washing. The amount of 125 radioactivity remaining in the bead pellet was determined in a g counter. % Inhibition was calculated as in FIG. 1A.

A further test deals with T2, membrane-bound Hhat (Homo sapiens, UniProt Q5VTY9).
T2 construct: HA; expressed in transfected cells; host or cells: 293FT cells (P100 microsomal membranes)
T2 sequence (Q5VTY9 whole entry): as above
The test can be described thus: Shh palmitoylation by membrane-bound Hhat (P100 membranes, SPA). Type of test: biochemical. Conditions: 1 hr at 20° C., triplicate. As to the method:
Microsomal membranes (P100) were prepared from 293FT cells transfected with a cDNA encoding HA-tagged Hhat as described (see, e.g., Buglino, J. A., and Resh, M. D. “Hhat is a palmitoyl acyltransferase with specificity for N-palmitoylation of sonic hedgehog” J. Biol. Chem. 2008, 283, 22076-22088; Petrova, E., Rios-Esteves, J., Ouerfelli, O., Glickman, J. F., and Resh, M. D. “Inhibitors of Hedgehog acyltransferase block Sonic Hedgehog signaling” Nat Chem Biol 2013, 9, 247-249). The protocol described by Petrova et al. (Nat Chem Biol 2013, 9, 247-249) was used to analyze Shh palmitoylation. Briefly, P100 membranes were incubated with ^125I-Iodopalmitoyl CoA and a C-terminally biotinylated Shh peptide in 384-well plates in the presence of the indicated concentrations of TDI-3410 for 1 hr at 20° C. Biotinylated peptides were captured on streptavidin-coated SPA (Scintillation Proximity Assay) beads and the amount of ^125I radioactivity was quantified on a Perkin-Elmer Trilux reader. Each data point represents the average of triplicate samples. % Inhibition was calculated as in FIG. 1A.

Test [2] deals with AsPC1 human pancreatic cancer cells. Put plainly: AsPC1 cell growth, 96-well plates, 6 days, EZQuant. The class given is cell-based. As to conditions: 750 cells/well. As for the experimental part: (§1) AsPC1 human pancreatic cancer cells (FIG. 5A) or T47D human breast cancer cells (FIG. 5B) were seeded at 750 cells/well in 96 well plates and grown for 6 days in the presence of the indicated concentrations of TDI-3410 or DMSO. Compounds were added on Day 0, and were replenished in the media every 2 days. Each condition was represented by duplicate wells. Cell number was quantified at Day 6 using EZQuant (Alstem).

Test [3] concerns T47D human breast cancer cells. Put plainly: T47D cell growth, 96-well plates, 6 days, EZQuant. Type of test: cell-based. Conditions: 750 cells/well. As to the method: as §1
The next test has as its system HeLa cells. Put plainly: HeLa cell proliferation, 24-well plates, EZQuant. The class given is cell-based. More on the design: effect on proliferation of HeLa cells: dose or concentration left out as unconfirmed. As for the experimental part:
24-well plate; Drugs replenished every 2 days; viable cells quantified with EZQuant; STS=Staurosporine, a positive control for cell killing. […] HeLa cells were seeded at 0.5×10^5 cells/well in 24-well plates and proliferation was assayed as described for FIG. 5. Each compound was present […].

Test [4] relates to oncospheres derived from AsPC-1 human pancreatic cancer cells. Put plainly: AsPC-1 oncosphere growth, 7 days, EZQuant. Conditions: ASPC1, drug replenished every 2 days, read-out: IC50, cell proliferation of AsPC-1 oncospheres. The class given is cell-based. As for the experimental part: AsPC-1 pancreatic cancer cells were grown on ultra-low attachment plates for 7-10 days in serum-free medium containing EGF, FGF, Insulin and N-2 and B-27 supplement to form oncospheres, which represent cancer stem cells. Oncosphere cultures were expanded and replated, and were used after 7 days in 2° culture. Oncospheres grown in 24-well plates were treated with TDI-3410 or vehicle; drug was replenished every 2 days. 7 days later, oncospheres were dissociated with trypsin and total viable cell number was determined using EZQuant.

Turning to `CCC(C)CNCC(=O)N1CCc2sccc2C1COc1cccc(C)c1` (stereo not shown) [RU-SKI 43, reference compound], in the test on H1703 oncospheres, the “cell count of H1703 oncospheres” value is given as “reduction in cell count with increased concentration”.
Regarding `O=C(c1ccc2nccn2c1)N1CCc2sc(Cl)cc2[C@H]1c1ccc(F)cc1` [TDI-003410], the “Hhat-mediated Shh palmitoylation” value on Hhat was “blocks Hhat-mediated Shh palmitoylation”. Also, the IC50 in [1] turned out to be 2680 nM; on purified Hhat, 1500 nM; against membrane-bound Hhat, 1780 nM; in the test with HeLa cells (Homo sapiens, HeLa, FIG. 6B inhibition curve, read-out: IC50, growth of HeLa cells) it was 28.5 µM; in the test on H1703 oncospheres (Homo sapiens, NCI-H1703, 240 h), 1400 nM; in test [4] it was 1800 nM. For the same compound, the “growth of AsPC1 human pancreatic cancer cells” value in test [2] is “inhibits the growth”. Moreover, the “growth of T47D human breast cancer cells” value in test [3] is “inhibits the growth”. In addition, the “concentration above which growth of HeLa cells is inhibited” value in the test with HeLa cells (FIG. 6B) is greater than 20 µM. In addition, the “effect on proliferation of HeLa cells” value in the test on HeLa cells (HeLa cells express no detectable Hhat) is listed as “little to no effect”. For the same compound, the “cell count of H1703 oncospheres” value in the test on H1703 oncospheres was “reduction in cell count with increased concentration”.
